According to patent US20230293644A1, “ANTI-INFLAMMATORY PEPTIDES AND COMPOSITION COMPRISING THE SAME” (Gemvax & KAEL Co., Ltd., priority 2012, published 2023):

System: TNF-α
Assay: Screening of TNF-α inhibitory effect, LPS-stimulated PBMC-derived monocytes (Example 2)
Assay type: cell-based, human
Conditions: 4 uM peptide, 2 hrs, LPS 10 ng/ml; for TNF-α inhibiting effect compared to the group treated with LPS and estrogen: estrogen 20 nM
Method: PBMC (peripheral blood mononuclear cells) layer was separated from blood samples (50 ml) collected in healthy subjects using Biocoll Separating Solution (Biochrom AG, Berlin, Germany). The collected PBMC were enriched in RPMI 1640 medium containing 20% human serum for 30 mins, and then transferred to 100-mm polystyeren cell culture plate coated with human serum for incubation for 2 hrs at 37° C., 5% CO^2 incubator. Monocytes were detached from the bottom of the plate using cold PBS, and incubated to reach the number of 1 × 10^5 cell/well in 96-well plate with RPMI 1640 medium (supplemented with penicillinstreptomycin; […], human serum; 20%) over night.
ELISA was performed to find out how the peptides of the PEP RIA series influence TNF-α level. PBMC-derived monocytes were incubated to reach the number of 1 × 10^5 cells per well in a 96-well plate and then treated with LPS (lipopolysaccharide; 10 ng/ml, Sigma) for 2 hours. To the monocytes that were washed three times with PBS, OPTI-MEM culture medium was added to induce cell starvation for an hour, 4 µM of the peptide was taken out and incubated for 2 hours. There were three negative control groups. The first group was not treated with anything. The second group that was treated with estrogen (in this experiment, estradiol was used as a kind of estrogen). The third group was treated with LPS (10 ng/ml) or with LPS (10 ng/ml) as well as estrogen (20 nM). PEP1 that was confirmed to have TNF-α inhibiting activity was used as a positive control to measure TNF-α inhibiting activity. After incubation, TNF-α was measured by following the ELISA kit manual (R&D, Minneapolis, MN, USA). The details of quantification method can be found in Experiment 2.2 of Example 1.
Using the method stated above, Peptides with TNF-α inhibiting effect were screened. PBMC-derived monocytes were stimulated with LPS (10 ng/ml), which is endotoxin, for 2 hours and were induced to starve by adding OPTI-MEM for 1 hour. After that, 4 uM of 179 peptides were treated and incubated for 2 hrs. The amount of TNF-α in the cell culture medium was measured using ELISA, and the peptides with TNF-α inhibiting effect were screened by comparing to the negative and positive controls (FIG. 3 to FIG. 23).

Substance	TNF-α inhibiting effect compared to the control group treated with only LPS	TNF-α inhibiting effect compared to the group treated with LPS and estrogen
AEVRQHREARPALLTSRLRFIPKPDG (listed as Homo sapiens) [SEQ ID NO: 54]	showed TNF-α inhibiting effect	showed TNF-α inhibiting effect
AEVRQHREARPALLTSRLRFIPKPDGL (listed as Homo sapiens) [SEQ ID NO: 55]	showed TNF-α inhibiting effect	showed TNF-α inhibiting effect
AEVRQHREARPALLTSRLRFIPKPDGLR (listed as Homo sapiens) [SEQ ID NO: 56]	showed TNF-α inhibiting effect	showed TNF-α inhibiting effect
AEVRQHREARPALLTSRLRFIPKPDGLRP (listed as Homo sapiens) [SEQ ID NO: 57]	showed TNF-α inhibiting effect	–
AEVRQHREARPALLTSRLRFIPKPDGLRPI (listed as Homo sapiens) [SEQ ID NO: 58]	showed TNF-α inhibiting effect	–
ALLTSR (listed as Homo sapiens) [SEQ ID NO: 142]	showed TNF-α inhibiting effect	–
ALLTSRL (listed as Homo sapiens) [SEQ ID NO: 141]	showed TNF-α inhibiting effect	–
ALLTSRLRF (listed as Homo sapiens) [SEQ ID NO: 140]	showed TNF-α inhibiting effect	showed TNF-α inhibiting effect
ARPA (listed as Homo sapiens) [SEQ ID NO: 119]	showed TNF-α inhibiting effect	–
ARPAL (listed as Homo sapiens) [SEQ ID NO: 118]	showed TNF-α inhibiting effect	–
ARPALL (listed as Homo sapiens) [SEQ ID NO: 117]	showed TNF-α inhibiting effect	showed TNF-α inhibiting effect
ARPALLT (listed as Homo sapiens) [SEQ ID NO: 116]	showed TNF-α inhibiting effect	showed TNF-α inhibiting effect
ARPALLTSRLRF (listed as Homo sapiens) [SEQ ID NO: 111]	showed TNF-α inhibiting effect	–
ARPALLTSRLRFI (listed as Homo sapiens) [SEQ ID NO: 110]	showed TNF-α inhibiting effect	showed TNF-α inhibiting effect
ARPALLTSRLRFIP (listed as Homo sapiens) [SEQ ID NO: 104]	showed TNF-α inhibiting effect	–
ARPALLTSRLRFIPK (listed as Homo sapiens) [SEQ ID NO: 91]	showed TNF-α inhibiting effect	showed TNF-α inhibiting effect
EAEVRQHREARPALLTSRLRFIPK (listed as Homo sapiens) [SEQ ID NO: 9]	showed TNF-α inhibiting effect	showed TNF-α inhibiting effect
EAR [SEQ ID NO: 90]	showed TNF-α inhibiting effect	showed TNF-α inhibiting effect
EARP (listed as Homo sapiens) [SEQ ID NO: 89]	showed TNF-α inhibiting effect	showed TNF-α inhibiting effect
EARPA (listed as Homo sapiens) [SEQ ID NO: 88]	showed TNF-α inhibiting effect	showed TNF-α inhibiting effect

Substance	TNF-α inhibiting effect compared to the control group treated with only LPS	TNF-α inhibiting effect compared to the group treated with LPS and estrogen
EARPALLTS (listed as Homo sapiens) [SEQ ID NO: 84]	showed TNF-α inhibiting effect	–
EARPALLTSR (listed as Homo sapiens) [SEQ ID NO: 83]	showed TNF-α inhibiting effect	showed TNF-α inhibiting effect
EARPALLTSRL (listed as Homo sapiens) [SEQ ID NO: 82]	showed TNF-α inhibiting effect	showed TNF-α inhibiting effect
EARPALLTSRLR (listed as Homo sapiens) [SEQ ID NO: 81]	showed TNF-α inhibiting effect	showed TNF-α inhibiting effect
EARPALLTSRLRF (listed as Homo sapiens) [SEQ ID NO: 80]	showed TNF-α inhibiting effect	showed TNF-α inhibiting effect
EARPALLTSRLRFIPKP (listed as Homo sapiens) [SEQ ID NO: 65]	showed TNF-α inhibiting effect	showed TNF-α inhibiting effect
EARPALLTSRLRFIPKPD (listed as Homo sapiens) [SEQ ID NO: 66]	showed TNF-α inhibiting effect	–
EARPALLTSRLRFIPKPDGLRPI (listed as Homo sapiens) [SEQ ID NO: 70]	showed TNF-α inhibiting effect	showed TNF-α inhibiting effect
EARPALLTSRLRFIPKPDGLRPIV (listed as Homo sapiens) [SEQ ID NO: 71]	showed TNF-α inhibiting effect	showed TNF-α inhibiting effect
EARPALLTSRLRFIPKPDGLRPIVN (listed as Homo sapiens) [SEQ ID NO: 72]	showed TNF-α inhibiting effect	showed TNF-α inhibiting effect
EARPALLTSRLRFIPKPDGLRPIVNMD (listed as Homo sapiens) [SEQ ID NO: 74]	showed TNF-α inhibiting effect	–
ELSEAEVRQHREARPALLTSRLRFIPK (listed as Homo sapiens) [SEQ ID NO: 12]	showed TNF-α inhibiting effect	–
EVRQHREARPALLTSRLRFIPKPD (listed as Homo sapiens) [SEQ ID NO: 42]	showed TNF-α inhibiting effect	showed TNF-α inhibiting effect
EVRQHREARPALLTSRLRFIPKPDG (listed as Homo sapiens) [SEQ ID NO: 43]	showed TNF-α inhibiting effect	showed TNF-α inhibiting effect
EVRQHREARPALLTSRLRFIPKPDGL (listed as Homo sapiens) [SEQ ID NO: 44]	showed TNF-α inhibiting effect	showed TNF-α inhibiting effect
EVRQHREARPALLTSRLRFIPKPDGLR (listed as Homo sapiens) [SEQ ID NO: 45]	showed TNF-α inhibiting effect	–
EVRQHREARPALLTSRLRFIPKPDGLRP (listed as Homo sapiens) [SEQ ID NO: 46]	showed TNF-α inhibiting effect	–
FIPK (listed as Homo sapiens) [SEQ ID NO: 102]	showed TNF-α inhibiting effect	showed TNF-α inhibiting effect
HREARPALLTSRLRFIPKP (listed as Homo sapiens) [SEQ ID NO: 17]	showed TNF-α inhibiting effect	showed TNF-α inhibiting effect
HREARPALLTSRLRFIPKPD (listed as Homo sapiens) [SEQ ID NO: 18]	showed TNF-α inhibiting effect	showed TNF-α inhibiting effect
